This note sets out measurements from patent US20230149448A1, “METHODS FOR PREVENTING AND TREATING R[…] MODIFICATION OF VIRUS RECEPTOR BINDING DOMAINS USING […]” (priority 2021, published 2023).

Each structure is given as a SMILES string.

The test system of series [1] is SARS-CoV-2. The format is cell-based.
Series [2] deals with receptor binding domain (RBD) of Spike S protein (Severe acute respiratory syndrome coronavirus 2, UniProt P0DTC2). Put plainly: Exposure of Spike protein, capture/detection by RBD-specific antibodies (96 well, HRP). On the set-up: species or system SARS-CoV-2. The conditions noted are these: 150 ppm, 5 minutes exposure.
Another series has as its system human subjects. Description: Safety of microaerosolized HOCl inhalation in human volunteers. The format is in vivo. The conditions noted are these: dense microaerosols for 2-5 minutes, 400 episodes. As for the experimental part:
The safety of exposure of human subjects to microaerosolized pure stable HOCl of the present disclosure via the respiratory route was evaluated.
Human volunteers were exposed to dense microaerosols of HOCl for periods of 2-5 minutes and submitted subjective reports of the outcomes of these experiences. Data on a total of 400 such episodes were collected under medical supervision.

Series [3] relates to SARS-CoV-2. The format is cell-based. This is another data set of the same source.

Regarding `CCO` [45% ethanol, ethanol, reference compound], the “average reductions in infectivity (positive control)” value in the series with SARS-CoV-2 [1] is given as 99.98%.
With `OBr` [HOBr, hypobromous acid], the “inhibition of chromophore formation (S protein remaining bound by RBD specific antibodies)” value in series [2] was “complete inhibition”.
Consider `OCl` [HOCl, hypochlorous acid], for which, in the series with SARS-CoV-2 [1], the “average reductions in infectivity” value is reported as 99.92%. Also, in series [2], the “inhibition of chromophore formation (S protein remaining bound by RBD specific antibodies)” value is “complete inhibition”. In addition, the serious adverse effects entry in the series on human subjects is “No serious adverse effects”. In addition, in the series with human subjects (disappeared upon cessation of exposure), the “minor complaints (nose irritation, slight impact on ease of deep breathing)” value is reported as “approximately 3%”. The “average reduction in titer” value with SARS-CoV-2 [3] is 99.96%.
